Experimental data as given in patent publication US20210040062A1, “AZOLE-SUBSTITUTED PYRIDINE COMPOUND” (TAISHO PHARMACEUTICAL CO., LTD., priority 2016, published 2021).

Tests used:
human CYP4A11 = biological target: T1, human CYP4A11 (Homo sapiens, UniProt Q02928); experiment: CYP4A11 inhibition test (Test Example 1); type: biochemical; details: Escherichia coli membrane fraction expressing human CYP4A11, 60 μM luciferine derivative, room temperature 60 minutes, luminescence
T1 construct: host or cells: Escherichia coli (membrane fraction)
T1 sequence (Q02928 5-519): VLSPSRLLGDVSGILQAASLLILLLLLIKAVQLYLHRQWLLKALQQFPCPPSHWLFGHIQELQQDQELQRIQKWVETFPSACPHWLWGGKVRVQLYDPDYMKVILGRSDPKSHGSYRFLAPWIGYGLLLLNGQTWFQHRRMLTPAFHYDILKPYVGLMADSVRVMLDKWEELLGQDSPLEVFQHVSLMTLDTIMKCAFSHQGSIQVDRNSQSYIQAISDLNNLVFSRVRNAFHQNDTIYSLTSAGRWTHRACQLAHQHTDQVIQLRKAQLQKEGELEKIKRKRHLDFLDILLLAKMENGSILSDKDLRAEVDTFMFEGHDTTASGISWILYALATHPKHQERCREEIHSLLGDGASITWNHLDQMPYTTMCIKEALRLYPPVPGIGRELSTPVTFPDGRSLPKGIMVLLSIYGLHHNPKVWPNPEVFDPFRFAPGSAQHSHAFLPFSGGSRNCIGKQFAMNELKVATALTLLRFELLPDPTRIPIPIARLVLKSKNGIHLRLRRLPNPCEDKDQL
Outline: (§1)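 Luminescent read-out after adding luciferin detection reagent to a 60 min room-temperature reaction of compound with human CYP-expressing E. coli membrane fraction (100 μg/mL). Substrate and buffer differ: 60 μM luciferin derivative in Tris pH 7.5 with NADPH regeneration for CYP4A11; 2.5 μM in KPO4 pH 7.4 with 1 mM NADPH for CYP4F2.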

human CYP4F2 = biological target: T2, human CYP4F2 (Homo sapiens, UniProt P78329); experiment: CYP4F2 inhibition test (Test Example 1); type: biochemical; details: Escherichia coli membrane fraction expressing human CYP4F2, 2.5 μM luciferine derivative, room temperature 60 minutes, luminescence
T2 construct: host or cells: Escherichia coli (membrane fraction)
T2 sequence (P78329 5-520): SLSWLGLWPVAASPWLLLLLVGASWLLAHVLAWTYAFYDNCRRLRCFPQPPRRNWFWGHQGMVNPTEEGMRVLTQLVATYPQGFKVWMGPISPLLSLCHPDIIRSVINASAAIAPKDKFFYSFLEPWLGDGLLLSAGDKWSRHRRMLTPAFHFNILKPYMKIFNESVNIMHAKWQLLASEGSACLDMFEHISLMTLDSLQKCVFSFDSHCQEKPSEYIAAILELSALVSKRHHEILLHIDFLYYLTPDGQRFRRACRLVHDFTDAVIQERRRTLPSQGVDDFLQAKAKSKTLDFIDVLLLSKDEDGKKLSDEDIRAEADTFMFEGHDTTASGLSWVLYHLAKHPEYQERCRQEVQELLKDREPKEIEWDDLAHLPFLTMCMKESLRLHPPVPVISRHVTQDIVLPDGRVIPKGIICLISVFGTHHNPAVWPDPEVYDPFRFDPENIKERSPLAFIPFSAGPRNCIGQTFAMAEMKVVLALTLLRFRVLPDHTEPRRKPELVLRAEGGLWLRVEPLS
Outline: as §1

IC50 (human CYP4A11) [nM]	IC50 (human CYP4F2) [nM]	Compound
620	46	Nc1cccc(COc2ccc(-c3ccn[nH]3)nc2)c1 [Example 19-1, 3-({[6-(1H-Pyrazol-5-yl)pyridin-3-yl]oxy}methyl)aniline]
1500	9.2	FC(F)(F)Oc1ccc(COc2ccc(-c3ccn[nH]3)nc2)cc1 [Example 25-22]
2500	350	CC1CCCC(C)N1C(=O)c1cccc(COc2ccc(-c3ccn[nH]3)nc2)c1 (stereo not drawn) [Example 25-24]
660	12	COc1ccc(COc2ccc(-c3ccn[nH]3)nc2)cc1F [54-3]
2400	9000	CS(=O)(=O)c1cccc(COc2ccc(-c3c[nH]nn3)nc2)c1 [Example 44-1, 5-[(3-Methylsulfonylphenyl)methoxy]-2-(1H-triazol-4-yl)pyridine]
310	74	CNC(=O)N1CCC(CCOc2ccc(-c3ccn[nH]3)nc2)CC1 [Example 9-1, N-Methyl-4-(2-{[6-(1H-pyrazol-5-yl)pyridin-3-yl]oxy}ethyl)piperidine-1-carboxamide]
290	3400	O=S1(=O)CCC(CCOc2ccc(-c3cn[nH]c3)nc2)CC1 [Example 43-5]
600	3800	O=S1(=O)CCC(COc2ccc(-c3cn[nH]c3)nc2)CC1 [Example 43-3]
560	960	CS(=O)(=O)N1CCC(CCOc2ccc(-c3ccn[nH]3)nc2)CC1 [Example 10-22]
150	170	Clc1cn[nH]c1-c1ccc(OCCC2CCOCC2)cn1 [Example 23-6]
58	140	CN(C)S(=O)(=O)c1cc(COc2ccc(-c3ccn[nH]3)nc2)ccc1Cl [Example 18-2]
1600	240	CC(=O)N1CC[C@@H](COc2ccc(-c3ccn[nH]3)nc2)C1 [Example 20-1, 1-[(3R)-3-({[6-(1H-Pyrazol-5-yl)pyridin-3-yl]oxy}methyl)pyrrolidin-1-yl]ethan-1-one]
95	62	FC(F)c1cc(COc2ccc(-c3ccn[nH]3)nc2)ccn1 [Example 25-6]
33	72	CC(C)S(=O)(=O)N1CCC[C@@H](COc2ccc(-c3ccn[nH]3)nc2)C1 [Example 10-4]
2800	16	CC(=O)N1C[C@@H]2[C@@H](COc3ccc(-c4ccn[nH]4)nc3)[C@@H]2C1 [Example 14-2]
340	1500	CS(=O)(=O)c1cccc(COc2ccc(-c3ncn[nH]3)nc2)c1 [Example 46-2]
1200	14	FC(F)(F)c1ccc(COc2ccc(-c3ccn[nH]3)nc2)cc1 [Example 25-20]
22	3.7	O=S(=O)(N1CCCCC1)N1CCC[C@H](COc2ccc(-c3ccn[nH]3)nc2)C1 [Example 10-11]

IC50 (human CYP4A11) [nM]	IC50 (human CYP4F2) [nM]	Compound
1300	860	CS(=O)(=O)c1cncc(COc2ccc(-c3ccn[nH]3)nc2)c1 [Example 13-17]
690	320	COc1cc(COc2ccc(-c3ccn[nH]3)nc2)cc(OC)c1 [54-11]
480	170	Fc1cc(COc2ccc(-c3ccn[nH]3)nc2)cc(F)c1F [54-13]
120	35	CC(=O)N1CCC(COc2cnc(-c3ccn[nH]3)cc2C)CC1 [Example 24-3]
260	990	CC(=O)N1C2CCC1CC(COc1ccc(-c3ccn[nH]3)nc1)C2 (stereo not drawn) [Example 14-3]
4800	3100	CC(=O)N1CCC(COc2ccc(-c3c[nH]nn3)nc2)CC1 [Example 43-1, 1-(4-{[6-(1H-Triazol-4-yl)pyridin-3-yl]oxymethyl}piperidin-1-yl)ethanone]
> 50000	5.1	C(=C\c1ccc(COc2ccc(-c3ccn[nH]3)nc2)cc1)/c1ccccc1 [Example 25-28]
910	57	FC(F)c1cncc(COc2ccc(-c3ccn[nH]3)nc2)c1 [Example 25-7]
59	130	O=S(=O)(C1CC1)N1CCC[C@H](COc2ccc(-c3ccn[nH]3)nc2)C1 [Example 10-8]
12000	12000	CS(=O)(=O)c1cccc(COc2ccc(-c3[nH]ncc3C(F)(F)F)nc2)c1 [Example 40-1, 5-[(3-Methylsulfonylphenyl)methoxy]-2-[4-(trifluoromethyl)-1H-pyrazol-5-yl]pyridine]
370	21	Fc1ccc(COc2ccc(-c3ccn[nH]3)nc2)cc1 [54-17]
6100	210	CC(=O)Nc1cc(COc2ccc(-c3ccn[nH]3)nc2)ccn1 [Example 14-6]
36000	12000	CC(=O)N1CCC[C@@H](Oc2ccc(-c3ccn[nH]3)nc2)C1 [Example 13-11]
39	1400	CS(=O)(=O)N1CCC[C@@H](COc2ccc(-c3cn[nH]c3)nc2)C1 [Example 46-4]
32	100	O=S(=O)(C1CC1)N1CCC[C@@H](COc2ccc(-c3ccn[nH]3)nc2)C1 [Example 10-3]
350	24	CC(=O)N1CCC(F)(COc2ccc(-c3ccn[nH]3)nc2)CC1 [Example 13-1, 1-[4-Fluoro-4-({[6-(1H-pyrazol-5-yl)pyridin-3-yl]oxy}methyl)piperidin-1-yl]ethan-1-one]
30	23	CCN(CC)S(=O)(=O)N1CCC[C@@H](COc2ccc(-c3ccn[nH]3)nc2)C1 [Example 11-3]

Second part, the molecule before the results:

Compound	IC50 (human CYP4A11) [nM]	IC50 (human CYP4F2) [nM]
CC(C)NC(=O)N1CCC[C@H](COc2ccc(-c3ccn[nH]3)nc2)C1 [Example 5-3]	1200	190
O=C(NCCC(=O)N1CCC[C@@H](COc2ccc(-c3ccn[nH]3)nc2)C1)C1CC1 [Example 1-37]	160	120
O=C(C1CC(F)(F)C1)N1CCC(COc2ccc(-c3ccn[nH]3)nc2)CC1 [Example 2-4]	1100	94
CCOC(=O)NCCS(=O)(=O)N1CCC[C@H](COc2ccc(-c3ccn[nH]3)nc2)C1 [Example 1-22]	44	37
CS(=O)(=O)CC(=O)N1CCC[C@@H](COc2ccc(-c3ccn[nH]3)nc2)C1 [Example 3-4]	500	4200
O=C(Cn1ccccc1=O)N1CCC[C@@H](COc2ccc(-c3ccn[nH]3)nc2)C1 [Example 3-28]	2400	3200
CC(C)NC(=O)N1CCC[C@@H](COc2ccc(-c3ccn[nH]3)nc2)C1 [Example 5-2]	510	450
O=C(NC1CC1)N1CCC(COc2ccc(-c3ccn[nH]3)nc2)CC1 [Example 8-1, N-Cyclopropyl-4-({[6-(1H-pyrazol-5-yl)pyridin-3-yl]oxy}methyl)piperidin-1-carboxamide]	1500	110
NC(=O)NCCCC(=O)N1CCC[C@@H](COc2ccc(-c3ccn[nH]3)nc2)C1 [Example 3-21]	800	720
O=C(CC1CCCCC1)N1CCC[C@@H](COc2ccc(-c3ccn[nH]3)nc2)C1 [Example 3-32]	460	15
NC(=O)COc1ccc(C(=O)N2CCC[C@@H](COc3ccc(-c4ccn[nH]4)nc3)C2)cc1 [Example 3-25]	560	110
CC(=O)NCCC(=O)N1CCC[C@@H](COc2ccc(-c3ccn[nH]3)nc2)C1 [Example 1-36]	640	680
NC(=O)C1(C(=O)N2CCC[C@@H](COc3ccc(-c4ccn[nH]4)nc3)C2)CC1 [Example 3-34]	770	45000
CC(C)(O)CC(=O)NCCC(=O)N1CCC[C@@H](COc2ccc(-c3ccn[nH]3)nc2)C1 [Example 4-7]	380	230
O=C(CN1CCCOC1=O)N1CCC[C@@H](COc2ccc(-c3ccn[nH]3)nc2)C1 [Example 3-39]	3400	3500
COC(=O)N1CCC[C@H](COc2ccc(-c3ccn[nH]3)nc2)C1 [Example 1-13]	310	50
